Experimental data published in PMC6346587, “Glucose 6-phosphate dehydrogenase 6-phosphogluconolactonase: characterization of the Plasmodium vivax enzyme and inhibitor studies” (Malaria Journal, 2019).
Read-outs that look alike come from different tables or passages of the source.

Columns and labels:
PfGluPho [1] = molecular target: T1, PfGluPho (Plasmodium falciparum, UniProt Q8IKU0); experiment: PfGluPho G6PD activity inhibition assay; format: biochemical
T1 construct: made in house
T1 sequence (Q8IKU0 1-910): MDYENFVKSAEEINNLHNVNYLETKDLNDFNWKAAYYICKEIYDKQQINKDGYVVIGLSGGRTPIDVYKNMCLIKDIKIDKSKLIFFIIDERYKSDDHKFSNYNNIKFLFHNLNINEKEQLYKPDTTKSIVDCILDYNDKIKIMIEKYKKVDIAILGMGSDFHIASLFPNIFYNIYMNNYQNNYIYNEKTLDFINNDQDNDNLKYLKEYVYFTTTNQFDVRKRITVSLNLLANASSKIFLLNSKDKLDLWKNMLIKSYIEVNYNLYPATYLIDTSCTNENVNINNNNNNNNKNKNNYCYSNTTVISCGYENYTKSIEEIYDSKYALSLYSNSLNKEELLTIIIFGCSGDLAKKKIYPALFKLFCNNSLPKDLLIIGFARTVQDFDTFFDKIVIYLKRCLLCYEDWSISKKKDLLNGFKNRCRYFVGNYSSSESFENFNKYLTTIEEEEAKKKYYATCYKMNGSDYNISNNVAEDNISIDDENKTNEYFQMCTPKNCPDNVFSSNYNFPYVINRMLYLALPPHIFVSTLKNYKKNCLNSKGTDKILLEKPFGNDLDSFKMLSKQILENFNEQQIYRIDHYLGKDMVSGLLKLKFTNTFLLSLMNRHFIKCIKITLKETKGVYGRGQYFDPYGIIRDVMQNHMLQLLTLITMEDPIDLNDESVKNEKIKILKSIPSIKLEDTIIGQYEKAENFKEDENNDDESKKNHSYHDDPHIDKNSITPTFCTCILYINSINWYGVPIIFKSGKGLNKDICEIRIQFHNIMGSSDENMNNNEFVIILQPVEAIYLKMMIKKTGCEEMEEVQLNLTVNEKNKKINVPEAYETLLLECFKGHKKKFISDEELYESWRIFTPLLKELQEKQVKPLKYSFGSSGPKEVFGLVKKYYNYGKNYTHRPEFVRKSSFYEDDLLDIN
Protocol: (§1) To identify potential inhibitors of PvG6PD, compounds with already known effects on PfGluPho (ellagic acid and derivatives, ML304) were tested. Additionally, several compound libraries of the Helmholtz Center for Infection Research, Brunswick, were screened against PfGluPho using the high-throughput-compatible assay systems described in Preuss et al.. […] Based on structure-activity relationship studies, a set of new potential G6PD inhibitors (Fig. 8) was then synthesized and assessed. First, the IC50 values of the compounds were determined, followed by mechanistic characterization of the mode of action. To test for selectivity of the compounds, the IC50 values of the compounds on PvG6PD, PfGluPho, and hG6PD were determined in parallel.
(§2) All measurements were performed in 96-well plates, half area (Greiner Bio-One, Frickenhausen, Germany) using a Tecan Infinite M200 plate reader (Maennedorf, Switzerland). The compounds were dissolved in 100% DMSO and afterwards diluted in assay buffer to the required concentrations. Different compound concentrations were added to a mixture of enzyme and NADP^+ in assay buffer. Concentrations of substrates differed depending on the enzyme; an overview is given in the Additional file 4. The reaction was started by adding G6P, and the increase of NADPH was monitored by measuring the absorbance at 340 nm. To increase the sensitivity of the assay, some measurements were reproduced, detecting the fluorescence of NADPH at ex340/em460. […] A negative control containing no compound was defined as 0% inhibition; a positive control lacking the substrate G6P was defined as 100% inhibition. For evaluations using GraphPad Prism and Microsoft Excel, only a linear increase in absorbance/fluorescence was considered. For the mechanistic characterization of the compounds, either NADP^+ or G6P were titrated at different compound concentrations around the IC50, while keeping the second substrate in saturation. The initial slope was plotted as Michaelis–Menten curves and Lineweaver–Burk plots using GraphPad Prism; KM values and Vmax were calculated with GraphPad Prism software.

PvG6PD = PvG6PD (Plasmodium vivax, UniProt A5K3M1); experiment: PvG6PD enzyme inhibition assay (NADPH formation, absorbance 340 nm / fluorescence); format: biochemical; conditions: for IC50: read-out: IC50 on PvG6PD
Sequence of PvG6PD (A5K3M1 entry or part of it): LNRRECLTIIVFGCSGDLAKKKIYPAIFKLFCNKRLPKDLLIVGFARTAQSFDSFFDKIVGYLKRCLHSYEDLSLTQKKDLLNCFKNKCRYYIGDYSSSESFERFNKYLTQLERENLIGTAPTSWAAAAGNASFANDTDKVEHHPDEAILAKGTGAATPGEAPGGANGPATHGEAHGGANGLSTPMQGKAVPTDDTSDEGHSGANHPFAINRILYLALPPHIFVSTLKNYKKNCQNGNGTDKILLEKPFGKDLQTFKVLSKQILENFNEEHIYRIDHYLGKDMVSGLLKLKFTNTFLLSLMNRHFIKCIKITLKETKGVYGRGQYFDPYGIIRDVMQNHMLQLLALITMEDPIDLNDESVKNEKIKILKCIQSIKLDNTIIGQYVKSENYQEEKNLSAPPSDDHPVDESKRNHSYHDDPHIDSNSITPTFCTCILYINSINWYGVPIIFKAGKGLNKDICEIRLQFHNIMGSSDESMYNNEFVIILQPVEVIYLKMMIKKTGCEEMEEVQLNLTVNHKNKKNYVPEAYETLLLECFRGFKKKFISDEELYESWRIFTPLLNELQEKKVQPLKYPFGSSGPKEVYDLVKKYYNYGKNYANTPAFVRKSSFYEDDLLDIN
Protocol: The G6PD activity of PfGluPho variants was measured spectrophotometrically as described for the wt enzyme. Kinetic characterization of PvG6PD was performed using the same assay system at an Evolution 300 spectrophotometer (Thermo Scientific, Dreieich, Germany). In brief, the initial reduction of NADP^+ to NADPH by PvG6PD was monitored by measuring the absorbance at 340 nm. The 500 µL reaction mixture contained 200 µM NADP^+ and varying concentrations of PvG6PD in an assay buffer of 100 mM Tris–HCl, pH 8.0, 10 mM MgCl2, and 0.5 mM EDTA at 25 °C. The reaction was started by adding 800 µM G6P. The KM for NADP^+ was determined by titrating NADP^+ from 2 to 400 µM at 800 µM G6P; the KM for G6P was measured accordingly by titrating G6P from 2 to 1200 µM at 200 µM NADP^+. KM values were calculated using GraphPad Prism. Since the KM for G6P was considerably higher than the value measured for PfGluPho [14], a concentration of 800 µM G6P was defined as substrate saturation for PvG6PD.
as §1, §2

recombinant hGrx1-roGFP2 = molecular target: T2, recombinant hGrx1-roGFP2 (Homo sapiens, UniProt P35754); experiment: In vitro interaction with recombinant hGrx1-roGFP2 probe; format: biochemical; conditions: at the concentrations used in this study
T2 construct: made in house
Protocol: The sensor hGrx1–roGFP2 (human glutaredoxin 1-reduction–oxidation sensitive green fluorescent protein 2) was recently transiently expressed in 3D7 P. falciparum parasites by using the pARL1a(+) expression vector. Heterologous overexpression of hGrx1–roGFP2 for the evaluation of the in vitro interactions of ML304 and anti-malarial drugs with the recombinant redox probe was performed according to [35].
ML304 was used at concentrations of 10 nM to 1 mM in degassed standard reaction buffer (100 mM potassium phosphate, 1 mM EDTA, pH 7.0). […] The characterization of the in vitro interaction of hGrx1–roGFP2 with ML304 was performed according to Schuh et al..

[2] = test system: cytosolic H2O2 levels of NF54-attB; parameters: method as in PMID 28874682; conditions: roGFP2-Orp1 probe, NF54-attB blood stages; cited from earlier work
P. falciparum 3D7 = conditions: chloroquine-sensitive strain; cited from earlier work
PfGluPho [3] = molecular target: T1, PfGluPho; conditions: ML304; read-out: IC50 on PfGluPho; cited from earlier work

CCN1CCC[C@@H]1CNC(=O)c1ccc2c(c1)NC(=O)c1cccc(C)c1S2 [ML304]
Type of inhibition of PfGluPho towards G6P (PfGluPho [1]; G6P titrated): competes with G6P
Type of inhibition of PfGluPho towards NADP+ (PfGluPho [1]; NADP+ titrated): non-competitive inhibitor
Ki (PfGluPho [1]; competes with G6P, read-out: Ki on PfGluPho towards G6P): 0.23 ± 0.16 µM
Type of inhibition of PvG6PD towards G6P (PvG6PD; G6P titrated): competitive inhibitor
Type of inhibition of PvG6PD towards NADP+ (PvG6PD; NADP+ titrated): mixed type inhibitor
Ki (PvG6PD; competitive towards G6P, read-out: Ki on PvG6PD towards G6P): 0.7 ± 0.3 µM
Ki (PvG6PD; mixed type towards NADP+, read-out: Ki on PvG6PD towards NADP+): 16.3 ± 8.8 µM
IC50 (PvG6PD; substrate saturation (800 µM G6P, 200 µM NADP+)): 15.3 ± 0.9 µM
IC50 (PvG6PD; substrates close to KM (85 µM G6P, 15 µM NADP+)): 2.6 ± 0.8 µM
Direct interaction with recombinantly purified hGrx1-roGFP2 probe (recombinant hGrx1-roGFP2): excluded a direct interaction
Effect on cytosolic H2O2 levels [2]: significantly increase
Active concentration on P. falciparum 3D7 in cell culture (P. falciparum 3D7): lower than 1 µM
IC50 (PfGluPho [3]): 0.19 µM
